Results as given in PubChem BioAssay (NCI).
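Five concentrations, 48 hours, 96-well plates. Here, GI50 denotes the concentration required for 50% inhibition of growth. At the TGI there is no net growth.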

Experiments:
Assay in all cases: NCI anticancer screen, dose series, 48 h
[1] = system: SNB-19 CNS
[2] = system: SF-268 CNS
[3] = system: U251 CNS
[4] = system: M14 melanoma
[5] = system: NCI-H226 lung
[6] = system: CAKI-1 renal
[7] = system: OVCAR-4 ovarian
[8] = system: HCT-15 colon
[9] = system: SK-MEL-2 melanoma
[10] = system: T-47D breast

| Structure (SMILES) | TGI [1] [µM] | TGI [2] [µM] | TGI [3] [µM] | TGI [4] [µM] | TGI [5] [µM] | TGI [6] [µM] | TGI [7] [µM] | TGI [8] [µM] | TGI [9] [µM] | GI50 [1] [µM] | GI50 [2] [µM] | GI50 [3] [µM] | GI50 [4] [µM] | GI50 [5] [µM] | GI50 [6] [µM] | GI50 [7] [µM] | GI50 [8] [µM] | GI50 [9] [µM] | TGI [10] [µM] | GI50 [10] [µM] |
| --- | --- | --- | --- | --- | --- | --- | --- | --- | --- | --- | --- | --- | --- | --- | --- | --- | --- | --- | --- | --- |
| O=C1C=C(Br)C(=O)C(Br)=C1 | > 100 | > 100 | > 100 | > 100 | > 100 | > 100 | > 100 | > 100 | > 100 |  |  |  |  |  |  |  |  |  |  |  |
| O=C(Nc1cc(C(F)(F)F)ccc1Cl)C(=O)C(C(=O)c1ccc2ccccc2c1)C1OC(=O)c2ccccc21 (centres undefined) | 20.6 | 52.8 | 14.3 | 25 | 3.36 | > 52.5 | > 59.3 | 30.1 | 28.7 |  |  |  |  |  |  |  |  |  |  |  |
| CC(C)OCN1COCN=C1NC#N | > 100 | > 100 | > 100 | > 100 | > 100 | > 100 | > 100 | 34.2 | > 100 |  |  |  |  |  |  |  |  |  |  |  |
| C/C=C(/C)C(=O)OC1C=C(CO)C(=O)C(OC(=O)/C(C)=C\C)C1C(C)C (centres undefined) | 2.85 | 3.05 | 2.03 | 2.26 | 6.01 | 2.62 | 2.49 | 1.86 | 3.47 | 1.46 | 1.46 | 0.708 | 0.795 | 2.41 | 1.34 | 1.12 | 0.46 | 1.82 |  |  |
| CNC(=O)OCc1nc(S(C)=O)n(C)c1COC(=O)NC (centres undefined) | > 100 | > 100 | > 100 | > 48.3 | > 100 | > 93.8 | > 71.6 | > 100 | > 100 |  |  |  |  |  |  |  |  |  |  |  |
| Fc1cccc(F)c1C1SCc2nc3ccccc3n21 (centres undefined) | > 100 | > 100 | > 100 | > 100 | > 100 | > 100 | > 100 | > 100 | > 100 |  |  |  |  |  |  |  |  |  |  |  |
| CC(=O)O[C@H]1CCC2[C@@H]3CCC4C(=O)c5oncc5C[C@]4(C)C3CC[C@@]21C (some centres undefined) |  | > 100 | > 100 | > 100 |  |  | > 100 | > 100 | > 100 |  |  |  |  |  |  |  |  |  |  |  |
| COC1OC(C)C(OC(=O)C(C)(C)C)C(C)(O)C1O (centres undefined) | > 100 | > 100 | > 100 | > 100 |  | > 100 | > 100 | > 100 |  |  |  |  |  |  |  |  |  |  |  |  |
| O=C(O)C1Cc2nc[nH]c2CN1 (centres undefined) | > 100 | > 100 | > 100 | > 100 | > 100 | > 100 | > 100 | > 100 | > 100 |  |  |  |  |  |  |  |  |  |  |  |
| Cc1c2n(c3ccccc13)CC1C2N(C)OC1(C)C (centres undefined) | > 100 | > 100 |  | > 100 | > 100 | > 100 | > 100 | > 100 | > 100 |  |  |  |  |  |  |  |  |  |  |  |
| CC1=CC(C)C(O)C(C)/C=C/C(O)C/C=C(/C)C(=O)CC(O)C(C)\C=C/C=C/C=C\C(=O)NC2=C(O)c3cc(C)c(O)c(c3C(=O)C2=O)C1=O (centres undefined) | > 100 | > 100 | > 100 | > 100 |  | > 100 | > 100 | > 100 | > 100 |  |  |  |  |  |  |  |  |  | > 100 |  |
| CC(NC1CCC[C@H]1O)c1ccccc1 (mixture of isomers) | > 100 | > 100 | > 100 | > 100 | > 100 |  | > 100 | > 100 | > 100 |  |  |  |  |  |  |  |  |  |  |  |
| CCCCCCCCCCCCCCCCCC(=O)NCCCNCCCNC(=O)CCCCCCCCCCCCCCCCC | > 100 | > 100 | > 100 | > 100 | > 100 | > 100 | > 100 | > 100 |  |  |  |  |  |  |  |  |  |  |  |  |
| Cc1cc(N2CCN(C)CC2)nc(NC2CCCC(Nc3ccnc4cc(Cl)ccc34)C2)n1 (centres undefined) | 13.2 | 6.35 | 4.33 | 3.46 | 10.3 |  | 6.24 | 3.1 | 4.38 | 3.42 | 1.97 | 2.02 | 1.7 | 3.01 |  | 1.9 | 0.973 | 1.99 | 4.6 | 1.91 |
| COc1ccc2cc(C(=O)/C=C/c3ccc(OC)c(OC)c3)ccc2c1 | 80 | 55.1 | 58.8 | 25.7 |  | 97.6 |  | > 100 |  | 27.2 | 19.2 | 11.8 | 11.2 |  | 21 |  | 3.11 |  | > 100 | 43.4 |
| Cc1ccccc1NC(=O)C(=O)Cc1nc2ccccc2s1 | > 100 | > 100 | > 100 | > 100 | > 100 | > 100 | > 100 | > 100 | > 100 |  |  |  |  |  |  |  |  |  |  |  |
| Oc1cccc(C2SCc3nc4ccccc4n32)c1 (centres undefined) | > 100 | > 100 | > 100 |  | > 100 | > 100 |  |  | > 100 |  |  |  |  |  |  |  |  |  |  |  |
| COc1cc2c(cc1OC)-c1c(cc(OC)c(OC)c1OC)C2=O | > 100 | > 100 | > 100 | > 100 | > 100 |  |  | > 100 |  |  |  |  |  |  |  |  |  |  |  |  |
| CC(C)(C)C1CCC2c3c([nH]c4ccccc34)C3C(=O)N(c4ccc(Br)cc4)C(=O)C3C2C1 (centres undefined) | 40 | 49.8 |  | > 100 | 36.1 | 43.8 | 41.5 | 36.3 | 54.6 |  |  |  |  |  |  |  |  |  |  |  |
| COc1ccc(C(=O)C(C(=O)C(=O)Nc2nc3ccc(OC)cc3s2)c2ccc(OC)cc2)cc1 (centres undefined) | > 100 | > 100 | > 100 | > 100 | > 100 | > 100 | > 100 | > 100 | > 100 |  |  |  |  |  |  |  |  |  |  |  |
| O=C1CCC(=O)c2cc(Br)ccc2N1 | > 100 | > 100 | > 100 | > 100 | > 100 | > 100 | > 100 | > 100 | > 100 |  |  |  |  |  |  |  |  |  |  |  |
| CC(=O)Nc1ccc(/C=c2\sc3nnc(/C=C/c4ccccc4)n3c2=O)cc1 | > 50 | > 50 | > 50 | > 50 | > 50 | > 50 | > 50 |  | > 50 |  |  |  |  |  |  |  |  |  |  |  |
| N/C(=N\C(=S)N1CCCCC1)N1CCCCC1 | > 100 | > 100 | > 100 | > 100 | > 100 | > 100 | > 100 | > 100 | > 100 |  |  |  |  |  |  |  |  |  |  |  |
